Data on 28 molecules can be found in patent US9464084B2, “P2X7 modulators” (Janssen Pharmaceutica NV, priority 2013, dated 2016).

The structures appear in SMILES notation.

The target in one assay is P2X7 (Homo sapiens (Human), UniProt Q99572). Nature of the assay: P2X7 antagonism in human PBMCs (LPS + Bz-ATP induced IL-1β release, ELISA).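 Further: PBMCs from donor human blood, with a further 1.5 h incubation of the cells in the assay.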 Conditions: compound 1 μM, LPS 30 ng/ml, Bz-ATP 0.5 mM. It is filed as cell-based.
Sequence of P2X7 (Q99572 whole entry): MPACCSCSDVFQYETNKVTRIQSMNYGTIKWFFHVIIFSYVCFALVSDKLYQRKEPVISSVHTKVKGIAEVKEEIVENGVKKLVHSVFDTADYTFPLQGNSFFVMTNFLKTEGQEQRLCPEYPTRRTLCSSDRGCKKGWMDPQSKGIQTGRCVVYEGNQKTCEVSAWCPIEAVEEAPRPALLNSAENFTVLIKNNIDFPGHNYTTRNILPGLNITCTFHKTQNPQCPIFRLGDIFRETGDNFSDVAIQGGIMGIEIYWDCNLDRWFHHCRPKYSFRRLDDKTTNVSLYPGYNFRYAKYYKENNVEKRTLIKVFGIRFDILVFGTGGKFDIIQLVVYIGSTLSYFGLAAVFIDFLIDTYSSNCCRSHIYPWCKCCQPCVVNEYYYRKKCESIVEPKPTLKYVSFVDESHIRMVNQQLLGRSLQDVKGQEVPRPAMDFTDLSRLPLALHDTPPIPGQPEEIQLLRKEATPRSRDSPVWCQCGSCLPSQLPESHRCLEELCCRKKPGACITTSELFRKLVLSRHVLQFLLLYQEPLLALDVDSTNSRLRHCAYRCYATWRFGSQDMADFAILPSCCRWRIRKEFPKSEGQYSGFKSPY
`O=C(c1cccnc1C(F)(F)F)N1CCc2c(-c3ccccc3)n[nH]c2C1` [Example 322, (3-phenyl-4,5-dihydro-1H-pyrazolo[3,4-c]pyridin-6(7H)-yl)(2-(trifluoromethyl)pyridin-3-yl)methanone]: the “PBMC 1 μM (% control)” value is 100.4 % control. Take `CC1c2ncn(-c3ccccn3)c2CCN1C(=O)c1cccc(C(F)(F)F)c1Cl` (stereo not shown) [Example 17, (2-Chloro-3-(trifluoromethyl)phenyl)(4-methyl-1-(pyridin-2-yl)-6,7-dihydro-1H-imidazo[4,5-c]pyridin-5(4H)-yl)methanone]: the “PBMC 1 μM (% control)” value is listed as 6.5 % control. On the same count and under the same terms, in the case of `O=C(c1cccc(C(F)(F)F)c1Cl)N1CCc2ncn(-c3ccccn3)c2C1` [Example 8, (2-Chloro-3-(trifluoromethyl)phenyl)(3-(pyridin-2-yl)-6,7-dihydro-3H-imidazo[4,5-c]pyridin-5(4H)-yl)methanone] it was 83.1 % control. Still for that read-out and setting: in the case of `O=C(c1cccc(C(F)(F)F)c1Cl)N1C=Cc2c(ncn2-c2ccccc2)C1` [Example 49, 5-{[2-Chloro-3-(trifluoromethyl)phenyl]carbonyl}-1-phenyl-4,5-dihydro-1H-imidazo[4,5-c]pyridine] it was 93.5 % control. Turning to `O=C(c1cccc(C(F)(F)F)c1Cl)N1CCc2nc[nH]c2C1` [Example 48, 5-{[2-Chloro-3-(trifluoromethyl)phenyl]carbonyl}-4,5,6,7-tetrahydro-3H-imidazo[4,5-c]pyridine], the “PBMC 1 μM (% control)” value was found to be 90.1 % control.

Take `O=C(O)C1c2ncn(-c3ccccn3)c2CCN1C(=O)c1cccc(C(F)(F)F)c1Cl` (stereo not shown) [Example 33, 5-{[2-Chloro-3-(trifluoromethyl)phenyl]carbonyl}-1-pyridin-2-yl-4,5,6,7-tetrahydro-1H-imidazo[4,5-c]pyridine-4-carboxylic acid]: the “PBMC 1 μM (% control)” value amounted to 100.7 % control. With `C[C@@H]1c2nnn(-c3cnccn3)c2CCN1C(=O)c1cccc(C(F)(F)F)c1Cl` (single isomer, unassigned) [Example 74, (4R*)-5-{[2-Chloro-3-(trifluoromethyl)phenyl]carbonyl}-4-methyl-1-pyrazin-2-yl-4,5,6,7-tetrahydro-1H-[1,2,3]triazolo[4,5-c]pyridine], the “PBMC 1 μM (% control)” value was determined as 102.6 % control. Still for that read-out and setting: as for `O=C(c1ccc(F)cc1Cl)N1CCc2c(-c3ccccc3)n[nH]c2C1` [Example 323, (2-chloro-4-fluorophenyl)(3-phenyl-4,5-dihydro-1H-pyrazolo[3,4-c]pyridin-6(7H)-yl)methanone], the figure is 102.4 % control; as for `CC1c2ncn(-c3ccccc3)c2CCN1C(=O)c1cccc(C(F)(F)F)c1Cl` (stereo not shown) [Example 12, (2-Chloro-3-(trifluoromethyl)phenyl)(4-methyl-1-phenyl-6,7-dihydro-1H-imidazo[4,5-c]pyridin-5(4H)-yl)methanone], 11.2 % control.

Still in this assay, the particulars now being: compound 10 μM, LPS 30 ng/ml, Bz-ATP 0.5 mM.
For `C[C@H]1Cc2c(nnn2-c2ncc(F)cn2)CN1C(=O)c1cccc(Cl)c1Cl` (single isomer, unassigned) [Example 205, (6S*)-5-[(2,3-Dichlorophenyl)carbonyl]-1-(5-fluoropyrimidin-2-yl)-6-methyl-4,5,6,7-tetrahydro-1H-[1,2,3]triazolo[4,5-c]pyridine], the “PBMC 10 μM (% control)” value came to 17.1 % control. Same read-out and setting: in the case of `CC1Cc2c(nnn2-c2ncc(F)cn2)CN1C(=O)c1cccc(C(F)(F)F)c1Cl` (stereo not shown) [Example 200, 5-{[2-Chloro-3-(trifluoromethyl)phenyl]carbonyl}-1-(5-fluoropyrimidin-2-yl)-6-methyl-4,5,6,7-tetrahydro-1H-[1,2,3]triazolo[4,5-c]pyridine] it was 3.2 % control. Take `C[C@@H]1c2nnn(-c3ncc(F)cn3)c2CCN1C(=O)c1cccc(C(F)(F)F)c1Cl` (single isomer, unassigned) [Example 158, (R*)-(2-Chloro-3-(trifluoromethyl)phenyl)(1-(5-fluoropyrimidin-2-yl)-4-methyl-6,7-dihydro-1H-[1,2,3]triazolo[4,5-c]pyridin-5(4H)-yl)methanone]: the “PBMC 10 μM (% control)” value was determined as 1.1 % control. Consider `Cc1ccnc(-n2nnc3c2CCN(C(=O)c2cccc(Cl)c2Cl)C3C)c1` (stereo not shown) [Example 237, (2,3-dichlorophenyl)(4-methyl-1-(4-methylpyridin-2-yl)-6,7-dihydro-1H-[1,2,3]triazolo[4,5-c]pyridin-5(4H)-yl)methanone], for which the “PBMC 10 μM (% control)” value was −5.1 % control. As to `C[C@@H]1c2nnn(-c3cnccn3)c2CCN1C(=O)c1ccc(F)c(Cl)c1Cl` (single isomer, unassigned) [Example 143, (R*)-(2,3-Dichloro-4-fluorophenyl)(4-methyl-1-(pyrazin-2-yl)-6,7-dihydro-1H-[1,2,3]triazolo[4,5-c]pyridin-5(4H)-yl)methanone], the “PBMC 10 μM (% control)” value is recorded as 58.0 % control. Turning to `CC1c2nnn(-c3cc[nH]n3)c2CCN1C(=O)c1cccc(C(F)(F)F)c1Cl` (stereo not shown) [Example 85, 5-{[2-Chloro-3-(trifluoromethyl)phenyl]carbonyl}-4-methyl-1-(1H-pyrazol-3-yl)-4,5,6,7-tetrahydro-1H-[1,2,3]triazolo[4,5-c]pyridine], the “PBMC 10 μM (% control)” value was determined as 24.7 % control. As for `C[C@@H]1c2nnn(-c3ccc(F)cc3)c2C[C@H](C)N1C(=O)c1cccc(C(F)(F)F)c1Cl` [Example 287, (2-chloro-3-(trifluoromethyl)phenyl)((4R,6S)-1-(4-fluorophenyl)-4,6-dimethyl-6,7-dihydro-1H-[1,2,3]triazolo[4,5-c]pyridin-5(4H)-yl)methanone], the “PBMC 10 μM (% control)” value was −4.1 % control.

On to `C[C@H]1c2nnn(-c3cc(F)ccn3)c2CCN1C(=O)c1cccc(C(F)(F)F)c1Cl` (single isomer, unassigned) [Example 149, (S*)-(2-Chloro-3-(trifluoromethyl)phenyl)(1-(4-fluoropyridin-2-yl)-4-methyl-6,7-dihydro-1H-[1,2,3]triazolo[4,5-c]pyridin-5(4H)-yl)methanone], for which the “PBMC 10 μM (% control)” value came out at 3.5 % control. The same measure, in the same setting: as for `Cc1ccnc(-n2nnc3c2CCN(C(=O)c2cccc(C(F)(F)F)c2Cl)[C@@H]3C)c1` (single isomer, unassigned) [Example 185, (R*)-(2-chloro-3-(trifluoromethyl)phenyl)(4-methyl-1-(4-methylpyridin-2-yl)-6,7-dihydro-1H-[1,2,3]triazolo[4,5-c]pyridin-5(4H)-yl)methanone], the figure is −3.7 % control. Consider `C[C@H]1Cc2c(nnn2-c2ncc(F)cn2)CN1C(=O)c1ccc(F)c(Cl)c1Cl` (single isomer, unassigned) [Example 215, (6S*)-5-[(2,3-Dichloro-4-fluorophenyl)carbonyl]-1-(5-fluoropyrimidin-2-yl)-6-methyl-4,5,6,7-tetrahydro-1H-[1,2,3]triazolo[4,5-c]pyridine], for which the “PBMC 10 μM (% control)” value was found to be 2.7 % control. Consider `C[C@H]1c2nnn(-c3ncc(F)cn3)c2CCN1C(=O)c1cccc(C(F)(F)F)c1F` (single isomer, unassigned) [Example 178, (S*)-(2-fluoro-3-(trifluoromethyl)phenyl)(1-(5-fluoropyrimidin-2-yl)-4-methyl-6,7-dihydro-1H-[1,2,3]triazolo[4,5-c]pyridin-5(4H)-yl)methanone], for which the “PBMC 10 μM (% control)” value is −4.7 % control. On the same count and under the same terms, in the case of `C[C@H]1Cc2c(nnn2-c2cnccn2)CN1C(=O)c1cccc(C(F)(F)F)c1Cl` (single isomer, unassigned) [Example 212, (6S*)-5-{[2-Chloro-3-(trifluoromethyl)phenyl]carbonyl}-6-methyl-1-pyrazin-2-yl-4,5,6,7-tetrahydro-1H-[1,2,3]triazolo[4,5-c]pyridine] it was 17.4 % control. For the molecule `O=C(c1cccc(C(F)(F)F)c1Cl)N1CCc2c(ncn2-c2ccc(F)cn2)C1` [Example 315, (2-chloro-3-(trifluoromethyl)phenyl)(1-(5-fluoropyridin-2-yl)-6,7-dihydro-1H-imidazo[4,5-c]pyridin-5(4H)-yl)methanone], the “PBMC 10 μM (% control)” value came out at 8.8 % control.

For `C[C@H]1Cc2c(nnn2-c2ncc(F)cn2)CN1C(=O)c1cccc(C(F)(F)F)c1` [Example 304, (S)-(1-(5-fluoropyrimidin-2-yl)-6-methyl-6,7-dihydro-1H-[1,2,3]triazolo[4,5-c]pyridin-5(4H)-yl)(3-(trifluoromethyl)phenyl)methanone], the “PBMC 10 μM (% control)” value was 3.2 % control. As for `O=C(c1ccc(Cl)cc1Cl)N1CCc2c(nnn2-c2ncccn2)C1` [Example 257, (2,4-dichlorophenyl)(1-(pyrimidin-2-yl)-6,7-dihydro-1H-[1,2,3]triazolo[4,5-c]pyridin-5(4H)-yl)methanone], the “PBMC 10 μM (% control)” value was 7.1 % control. In the case of `C[C@@H]1Cc2c(nnn2-c2ccc(F)cc2)[C@@H](C)N1C(=O)c1cccc(C(F)(F)F)c1Cl` [Example 284, (2-chloro-3-(trifluoromethyl)phenyl)((4R,6R)-1-(4-fluorophenyl)-4,6-dimethyl-6,7-dihydro-1H-[1,2,3]triazolo[4,5-c]pyridin-5(4H)-yl)methanone], the “PBMC 10 μM (% control)” value is reported as 18.2 % control. As to `C[C@@H]1Cc2c(nnn2-c2ncccc2F)CN1C(=O)c1cccc(Cl)c1Cl` (single isomer, unassigned) [Example 165, (6R*)-5-[(2,3-Dichlorophenyl)carbonyl]-1-(3-fluoropyridin-2-yl)-6-methyl-4,5,6,7-tetrahydro-1H-[1,2,3]triazolo[4,5-c]pyridine], the “PBMC 10 μM (% control)” value turned out to be 60.7 % control. As for `Cc1cccnc1-n1nnc2c1CCN(C(=O)c1cccc(C(F)(F)F)c1Cl)C2C` (stereo not shown) [Example 259, (2-Chloro-3-(trifluoromethyl)phenyl)(4-methyl-1-(3-methylpyridin-2-yl)-6,7-dihydro-1H-[1,2,3]triazolo[4,5-c]pyridin-5(4H)-yl)methanone], the “PBMC 10 μM (% control)” value is −3.5 % control. On to `C[C@@H]1c2ncn(-c3ccc(F)cn3)c2CCN1C(=O)c1cccc(C(F)(F)F)c1Cl` (single isomer, unassigned) [Example 40, (R*)-(2-chloro-3-(trifluoromethyl)phenyl)(1-(5-fluoropyridin-2-yl)-4-methyl-6,7-dihydro-1H-imidazo[4,5-c]pyridin-5(4H)-yl)methanone], for which the “PBMC 10 μM (% control)” value came to 36.5 % control.
